In patent US6737383B1, “Herbicidal oxadiazolidines” (priority 1999, dated 2004):

Experiments:
wheat = assay: Test B pre/postemergence wheat; assay type: in vivo, Triticum aestivum
In short: (§1)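 Test chemicals in a non-phytotoxic solvent mixture with surfactant were sprayed preemergence onto planted seeds and postemergence onto plants 2 to 18 cm tall (1- to 4-leaf stage). After twelve to sixteen days in a greenhouse, injury was visually rated against untreated controls from 0 (no effect) to 10 (complete control).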

pigweed = assay: Test B pre/postemergence pigweed; assay type: in vivo, Amaranthus retroflexus
In short: as §1

wild oat = assay: Test B pre/postemergence wild oat; assay type: in vivo, Avena fatua
In short: as §1

blackgrass = assay: Test B pre/postemergence blackgrass; assay type: in vivo, Alopecurus myosuroides
In short: as §1

cocklebur = assay: Test B pre/postemergence cocklebur; assay type: in vivo, Xanthium strumarium
In short: as §1

crabgrass = assay: Test B pre/postemergence crabgrass; assay type: in vivo, Digitaria sanguinalis
In short: as §1

bedstraw = assay: Test B pre/postemergence bedstraw; assay type: in vivo, Galium aparine
In short: as §1

rice = assay: Test B flood test rice; assay type: in vivo, Oryza sativa
In short: (§2)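 Each value is a visual injury score relative to controls, with 10 meaning complete control and 0 no effect. Evaluation took place twelve to sixteen days after the 2-leaf-stage plants were treated and kept in the greenhouse.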

rape = assay: Test B pre/postemergence rape; assay type: in vivo, Brassica napus
In short: as §1

bamyardgrass = assay: Test B flood test barnyardgrass; assay type: in vivo, Echinochloa crus-galli
In short: as §2

corn = assay: Test B pre/postemergence corn; assay type: in vivo, Zea mays
In short: as §1

surinam grass = assay: Test B pre/postemergence surinam grass; assay type: in vivo, Brachiaria decumbens
In short: as §1

sugar beet = assay: Test B pre/postemergence sugar beet; assay type: in vivo, Beta vulgaris
In short: as §1

morningglory = assay: Test B pre/postemergence morningglory; assay type: in vivo, Ipomoea hederacea
In short: as §1

purple nutsedge = assay: Test B pre/postemergence purple nutsedge; assay type: in vivo, Cyperus rotundus
In short: as §1

giant foxtail = assay: Test B pre/postemergence giant foxtail; assay type: in vivo, Setaria faberii
In short: as §1

[1] = Preemergence, Rate 62 g/ha, scale of 0 to 10 where 0 is no effect and 10 is complete control
[2] = Preemergence, Rate 250 g/ha, scale 0 to 10, 0 is no effect, 10 is complete control
[3] = Preemergence, Rate 500 g/ha, scale 0 to 10 (0 no effect, 10 complete control)
[4] = Rate 125 g/ha, Postemergence, scale 0 to 10
[5] = Rate 500 g/ha, Postemergence, scale 0 to 10
[6] = Preemergence, Rate 125 g/ha, 0 is no effect, 10 is complete control
[7] = Rate 62 g/ha, Postemergence, scale of 0 to 10 where 0 is no effect and 10 is complete control
[8] = Rate 62 g/ha, headed Pre-emergence (flood test species), scale 0 to 10 (0 no effect, 10 complete control)
[9] = Rate 125 g/ha, Pre-emergence, flood test species, scale 0 to 10 where 0 is no effect and 10 is complete control
[10] = Rate 250 g/ha, Pre-emergence, flood-test species, scale 0 to 10, 0 is no effect, 10 is complete control
[11] = Rate 500 g/ha, headed Pre-emergence (flood test species), scale 0 to 10 (0 no effect, 10 complete control)

COc1nc(OC)nc(N(C(=O)n2oc(=O)n(-c3c(C)cccc3C)c2=O)C(C)C)n1 [Compound 180]
0: Wheat plant response rating (wheat; [1]) | Wheat plant response rating (wheat; [2]) | Wheat plant response rating (wheat; [3]) | Wheat plant response rating (wheat; [4]) | Plant response rating (0 to 10; 0 is no effect, 10 is complete control), Wheat (wheat; Rate 250 g/ha, Postemergence) | Wheat plant response rating (wheat; [5]) | Redroot pigweed plant response rating (pigweed; [1]) | Redroot pigweed plant response rating (0 to 10 scale) (pigweed; [6]) | Redroot pigweed plant response rating (pigweed; [2]) | Redroot pigweed plant response rating (pigweed; [3]) | Redroot pigweed plant response rating (pigweed; [7]) | Redroot pigweed plant response rating (pigweed; [4]) | Plant response rating (0 to 10; 0 is no effect, 10 is complete control), Redroot pigweed (pigweed; Rate 250 g/ha, Postemergence) | Redroot pigweed plant response rating (pigweed; [5]) | Wild oats plant response rating (wild oat; [1]) | Wild oats plant response rating (wild oat; [2]) | Wild oats plant response rating (wild oat; [3]) | Wild oats plant response rating (wild oat; [4]) | Plant response rating (0 to 10; 0 is no effect, 10 is complete control), Wild oats (wild oat; Rate 250 g/ha, Postemergence) | Wild oats plant response rating (wild oat; [5]) | Blackgrass plant response rating (blackgrass; [1]) | Blackgrass plant response rating (0 to 10 scale) (blackgrass; [6]) | Blackgrass plant response rating (blackgrass; [2]) | Blackgrass plant response rating (blackgrass; [3]) | Blackgrass plant response rating (blackgrass; [7]) | Blackgrass plant response rating (blackgrass; [4]) | Plant response rating (0 to 10; 0 is no effect, 10 is complete control), Blackgrass (blackgrass; Rate 250 g/ha, Postemergence) | Blackgrass plant response rating (blackgrass; [5]) | Cocklebur plant response rating (cocklebur; [1]) | Cocklebur plant response rating (0 to 10 scale) (cocklebur; [6]) | Cocklebur plant response rating (cocklebur; [2]) | Cocklebur plant response rating (cocklebur; [3]) | Cocklebur plant response rating (cocklebur; [7]) | Cocklebur plant response rating (cocklebur; [4]) | Plant response rating (0 to 10; 0 is no effect, 10 is complete control), Cocklebur (cocklebur; Rate 250 g/ha, Postemergence) | Cocklebur plant response rating (cocklebur; [5]) | Crabgrass plant response rating (crabgrass; [1]) | Crabgrass plant response rating (0 to 10 scale) (crabgrass; [6]) | Crabgrass plant response rating (crabgrass; [2]) | Crabgrass plant response rating (crabgrass; [3]) | Crabgrass plant response rating (crabgrass; [7]) | Crabgrass plant response rating (crabgrass; [4]) | Plant response rating (0 to 10; 0 is no effect, 10 is complete control), Crabgrass (crabgrass; Rate 250 g/ha, Postemergence) | Crabgrass plant response rating (crabgrass; [5]) | Bedstraw plant response rating (bedstraw; [1]) | Bedstraw plant response rating (0 to 10 scale) (bedstraw; [6]) | Bedstraw plant response rating (bedstraw; [2]) | Bedstraw plant response rating (bedstraw; [3]) | Bedstraw plant response rating (bedstraw; [7]) | Bedstraw plant response rating (bedstraw; [4]) | Plant response rating (0 to 10; 0 is no effect, 10 is complete control), Bedstraw (bedstraw; Rate 250 g/ha, Postemergence) | Bedstraw plant response rating (bedstraw; [5]) | Rice plant response rating (rice; [8]) | Rice plant response rating (rice; [9]) | Rice plant response rating (rice; [10]) | Plant response rating, Rice (rice; [11]) | Rape plant response rating (rape; [1]) | Rape plant response rating (0 to 10 scale) (rape; [6]) | Rape plant response rating (rape; [2]) | Rape plant response rating (rape; [3]) | Rape plant response rating (rape; [7]) | Rape plant response rating (rape; [4]) | Plant response rating (0 to 10; 0 is no effect, 10 is complete control), Rape (rape; Rate 250 g/ha, Postemergence) | Rape plant response rating (rape; [5]) | Barnyardgrass plant response rating (bamyardgrass; [8]) | Barnyardgrass plant response rating (bamyardgrass; [9]) | Barnyardgrass plant response rating (bamyardgrass; [10]) | Plant response rating, Barnyardgrass (bamyardgrass; [11]) | Corn plant response rating (corn; [1]) | Corn plant response rating (0 to 10 scale) (corn; [6]) | Corn plant response rating (corn; [2]) | Corn plant response rating (corn; [3]) | Corn plant response rating (corn; [7]) | Corn plant response rating (corn; [4]) | Plant response rating (0 to 10; 0 is no effect, 10 is complete control), Corn (corn; Rate 250 g/ha, Postemergence) | Corn plant response rating (corn; [5]) | B. signalgrass plant response rating (surinam grass; [1]) | B. signalgrass plant response rating (0 to 10 scale) (surinam grass; [6]) | B. signalgrass plant response rating (surinam grass; [2]) | B. signalgrass plant response rating (surinam grass; [3]) | B. signalgrass plant response rating (surinam grass; [7]) | B. signalgrass plant response rating (surinam grass; Rate 125 g/ha, Postemergence, scale 0 (no effect) to 10 (complete control)) | Plant response rating, B. signalgrass (surinam grass; Rate 250 g/ha, Postemergence, scale 0 to 10, 0 is no effect, 10 is complete control) | B. signalgrass plant response rating (surinam grass; Rate 500 g/ha, Postemergence, scale 0 to 10, 0 no effect, 10 complete control) | Sugarbeets plant response rating (sugar beet; [1]) | Sugarbeets plant response rating (0 to 10 scale) (sugar beet; [6]) | Sugarbeets plant response rating (sugar beet; [2]) | Sugarbeets plant response rating (sugar beet; [3]) | Sugarbeets plant response rating (sugar beet; [7]) | Sugarbeets plant response rating (sugar beet; [4]) | Plant response rating (0 to 10; 0 is no effect, 10 is complete control), Sugarbeets (sugar beet; Rate 250 g/ha, Postemergence) | Sugarbeets plant response rating (sugar beet; [5]) | Morningglory plant response rating (morningglory; [1]) | Morningglory plant response rating (0 to 10 scale) (morningglory; [6]) | Morningglory plant response rating (morningglory; [2]) | Morningglory plant response rating (morningglory; [3]) | Morningglory plant response rating (morningglory; [7]) | Morningglory plant response rating (morningglory; [4]) | Plant response rating (0 to 10; 0 is no effect, 10 is complete control), Morningglory (morningglory; Rate 250 g/ha, Postemergence) | Morningglory plant response rating (morningglory; [5]) | Nutsedge plant response rating (purple nutsedge; [1]) | Nutsedge plant response rating (0 to 10 scale) (purple nutsedge; [6]) | Nutsedge plant response rating (purple nutsedge; [2]) | Nutsedge plant response rating (purple nutsedge; [3]) | Nutsedge plant response rating (purple nutsedge; [7]) | Nutsedge plant response rating (purple nutsedge; [4]) | Plant response rating (0 to 10; 0 is no effect, 10 is complete control), Nutsedge (purple nutsedge; Rate 250 g/ha, Postemergence) | Nutsedge plant response rating (purple nutsedge; [5]) | Giant foxtail plant response rating (giant foxtail; [1]) | Giant foxtail plant response rating (0 to 10 scale) (giant foxtail; [6]) | Giant foxtail plant response rating (giant foxtail; [2]) | Giant foxtail plant response rating (giant foxtail; [3]) | Giant foxtail plant response rating (giant foxtail; [7]) | Giant foxtail plant response rating (giant foxtail; [4]) | Plant response rating (0 to 10; 0 is no effect, 10 is complete control), Giant foxtail (giant foxtail; Rate 250 g/ha, Postemergence) | Giant foxtail plant response rating (giant foxtail; [5])
